US4485109A, “4-Aryl-4-piperidinecarbinols” (E. I. Du Pont de Nemours and Company, priority 1983, dated 1984)
Where two headings read alike, the source gives them in different places.

Tested on: tetrabenazine-induced depression
Assay: Antagonism (prevention) of tetrabenazine-induced sedation and depression in mice, orally
Format: in vivo, mice (Carworth CF1 S female)
Conditions: Mus musculus, 1 h, tetrabenazine 32 mg/kg i.p. 30 min after compound
Text: A standard procedure for detecting and comparing the antidepressant activity of the compounds of this invention, for which there is good correlation with human efficacy, is the prevention of tetrabenazine-induced sedation and depression in mice. (Everett, "The Dopa Response Potentiation Test and Its Use in Screening for Antidepressant Drugs", pp. 164-167 in Antidepressant Drugs [Proceedings of the First International Symposium], S. Garattini and M. N. G. Dukes (editors), 1967).
Groups of 10 Carworth CF1 S female mice, 18-21 g each, each fasted 1.5 h and were intubated with antagonist compounds at oral doses, such as 0, 1, 3, 9, 27 and 81 mg/kg in 0.20 mL of 1% Methocel® (methylcellulose).The mice were challenged 30 minutes later with tetrabenazine (as the methanesulfonate), 32 mg/kg intraperitoneally (dissolved in 0.20 mL 0.05% aqueous KCl at pH 2.0). One hour after administration of antagonist (30 minutes after administration of tetrabenazine) the mice were examined for signs of exploratory activity and ptosis (eye lid closure). Normal exploratory activity (relief from sedation) was recorded when a mouse, lifted by the tail from a group of 10 in a testing box and placed on a stainless steel testing box lid (12.5 inch (31.8 cm) by 8 inch (20.3 cm) with 0.33 inch mesh), either turned its head horizontally 30° in both directions or moved to the edge of the screen within 10 seconds after being placed on the screen. Relief from ptosis was recorded when, at exactly two seconds after placing the mouse facing the observer, lid closure was less than 50% in both eyes.

[1] = po, read-out: ORAL ED50 for prevention of exploratory loss, mice, oral, at one hour post-drug
[2] = po, read-out: ORAL ED50 for prevention of ptosis, mice, oral, at one hour post-drug

| Structure (SMILES) | ED50 [1] | ED50 [2] | ED50 (mice, oral, at one hour post-drug, read-out: ORAL ED50 for prevention of exploratory loss) | ED50 (mice, oral, at one hour post-drug, read-out: ORAL ED50 for prevention of ptosis) |
| --- | --- | --- | --- | --- |
| CN1CCC(c2ccc(N(C)C)cc2)(C(C)(C)O)CC1 [Example 33, 4-(4'-Dimethylaminophenyl)-α,α,1-trimethyl-4-piperidinemethanol] | 0.78 mg/kg | 0.35 mg/kg | – | – |
| COc1cccc(C2(C3(O)CCCCC3)CCN(C)CC2)c1OC [Example 23, 1-[1'-Methyl-4'-(2",3"-dimethoxyphenyl)-4'-piperidinyl]cyclohexanol] | 38 mg/kg | 17 mg/kg | – | – |
| COc1cccc(C2(C3(O)CCCC3)CCN(Cc3ccccc3)CC2)c1OC [Example 38, 1-[1'-Benzyl-4'-(2",3"-dimethoxyphenyl)-4'-piperidinyl]cyclopentanol] | > 81 mg/kg | > 81 mg/kg | – | – |
| COc1cccc(C2(C3(O)CCCCCC3)CCN(C)CC2)c1 [Example 27, 1-[1'-Methyl-4'-(3"-methoxyphenyl)-4'-piperidinyl]cycloheptanol] | 1.4 mg/kg | 0.9 mg/kg | – | – |
| CN1CCC(c2cccnc2)(C(C)(C)O)CC1 [Example 26, 4-(3'-Pyridyl)-α,α,1-trimethyl-4-piperidinemethanol] | 29 mg/kg | 18 mg/kg | – | – |
| COc1cccc(C2(C(C)(C)O)CCN(C)CC2C)c1 (stereo not drawn) [Example 43, 4-(3'-Methoxyphenyl)-α,α,1,3-tetramethyl-4-piperidinemethanol] | 7.2 mg/kg | 5.8 mg/kg | – | – |
| COc1ccc(OC)c(C2(C(C)(C)O)CCN(C)CC2)c1 [Example 29, 4-(2',5'-Dimethoxyphenyl)-α,α,1-trimethyl-4-piperidinemethanol] | 0.99 mg/kg | 0.86 mg/kg | – | – |
| CCC(O)(CC)C1(c2cccc(OC)c2)CCN(C)CC1 [Example 18, 4-(3'-Methoxyphenyl)-α,α-diethyl-1-methyl-4-piperidinemethanol] | 0.71 mg/kg | 0.71 mg/kg | – | – |
| CN(C)CCCN1c2ccccc2CCc2ccccc21 [Imipramine, reference compound] | 2.2 mg/kg | 0.94 mg/kg | – | – |
| Cc1ccc(C2(C(C)(C)O)CCN(C)CC2)s1 [Example 25, 4-(5'-Methyl-2'-thienyl)-α,α,1-trimethyl-4-piperidinemethanol] | 0.99 mg/kg | 0.69 mg/kg | – | – |
| COc1cccc(C2(C3(O)CCCC3)CCN(C)CC2)c1OC [Example 3, 1-[1'-Methyl-4'-(2",3"-dimethoxyphenyl)-4'-piperidinyl]cyclopentanol] | 14 mg/kg | 2.8 mg/kg | – | – |
| CC1CCC(O)(C2(c3cccc(C(F)(F)F)c3)CCN(C)CC2)C1 (racemic) [Example 46, (±)-cis and trans-3-Methyl-1-[1'-methyl-4'-(3"-trifluoromethylphenyl)-4'-piperidinyl]cyclopentanol] | < 1 mg/kg | < 1 mg/kg | – | – |
| Cc1cc(C)cc(C2(C(C)(C)O)CCN(C)CC2)c1 [Example 12, 4-(5'-m-Xylyl)-α,α,1-trimethyl-4-piperidinemethanol] | 0.11 mg/kg | 0.064 mg/kg | – | – |
| CN(C)CCC=C1c2ccccc2CCc2ccccc21 [Amtriptyline, reference compound] | – | – | 2.7 mg/kg | 0.7 mg/kg |
| CC1CCC(O)(C2(c3cccc(C(F)(F)F)c3)CCN(C)CC2)C1 (single isomer, unassigned; (-)) [Example 47, (-)-cis and trans-3-Methyl-1-[1'-methyl-4'-(3"-trifluoromethylphenyl)-4'-piperidinyl]cyclopentanol] | < 1 mg/kg | < 1 mg/kg | – | – |
| CC(C)(O)C1(c2cccc(C(F)(F)F)c2)CCN2CCCC2C1 (stereo not drawn) [Example 45, 7-(3'-Trifluoromethylphenyl)-α,α-dimethyl-7-indolizidinemethano] | < 0.33 mg/kg | 0.48 mg/kg | – | – |
| COc1cccc(C2(C3(O)CCC3)CCN(C)CC2)c1 [Example 22, 1-[1'-Methyl-4'-(3"-methoxyphenyl)-4'-piperidinyl]cyclobutanol] | 0.92 mg/kg | 0.67 mg/kg | – | – |

| Structure (SMILES) | ED50 [1] | ED50 [2] | ED50 (mice, oral, at one hour post-drug, read-out: ORAL ED50 for prevention of exploratory loss) | ED50 (mice, oral, at one hour post-drug, read-out: ORAL ED50 for prevention of ptosis) |
| --- | --- | --- | --- | --- |
| COc1cccc(C2(C3(O)CCCCCCC3)CCN(C)CC2)c1 [Example 28, 1-[1'-Methyl-4'-(3"-methoxyphenyl)-4'-piperidinyl]cyclooctanol] | 3.8 mg/kg | 1.7 mg/kg | – | – |
| CN1CCC(c2cccn2C)(C(C)(C)O)CC1 [Example 24, 4-(1'-Methyl-2'-pyrrolyl)-α,α,1-trimethyl-4-piperidinemethanol] | 1.2 mg/kg | 0.78 mg/kg | – | – |
| CN1CCC(c2cccc(-c3ccccc3)c2)(C(C)(C)O)CC1 [Example 36, 4-(3'-Biphenylyl)-α,α,1-trimethyl-4-piperidinemethanol] | 1.1 mg/kg | 0.66 mg/kg | – | – |
| COc1ccccc1C1(C(C)(C)O)CCN(C)CC1 [Example 15, 4-(2'-Methoxyphenyl)-α,α,1-trimethyl-4-piperidinemethanol] | 2.3 mg/kg | 0.57 mg/kg | – | – |
| Cc1ccc(C2(C(C)(C)O)CCN(C)CC2)cc1C [Example 13, 4-(4'-o-Xylyl)-α,α,1-trimethyl-4-piperidinemethanol] | 0.3 mg/kg | 0.23 mg/kg | – | – |
| CN1CCC(c2ccc(F)cc2)(C(C)(C)O)CC1 [Example 5, 4-(4'-Fluorophenyl)-α,α,1-trimethyl-4-piperidinemethanol] | 0.48 mg/kg | 0.33 mg/kg | – | – |
| CSc1ccc(C2(C(C)(C)O)CCN(C)CC2)cc1 [Example 21, 4-(4'-Methylthiophenyl)-α,α,1-trimethyl-4-piperidinemethanol] | 1.3 mg/kg | 1.3 mg/kg | – | – |
| Cc1cccc(C2(C(C)(C)O)CCN(C)C(C)C2)c1 (stereo not drawn) [Example 44, 4-(3'-Tolyl)-α,α,1,2-tetramethyl-4-piperidinemethanol] | 0.33 mg/kg | 0.33 mg/kg | – | – |
| COc1cccc(C2(C3(O)CCCCC3)CCN(C)CC2)c1 [Example 35, 1[1'-Methyl-4'-(3"-methoxyphenyl)-4'-piperidine]cyclohexanol] | 1.4 mg/kg | 1.1 mg/kg | – | – |
| COc1cccc(C2(C(C)(C)O)CCN(C)CC2)c1OC [Example 20, 4-(2',3'-Dimethoxyphenyl)-α,α,1-trimethyl-4-piperidinemethanol] | 4.6 mg/kg | 2.1 mg/kg | – | – |
| COc1cccc(C2(C(C)(C)O)CCNCC2)c1 [Example 14, 4-(3'-Methoxyphenyl)-α,α-dimethyl-4-piperidinemethanol] | 4.4 mg/kg | 2.7 mg/kg | – | – |
| CN1CCC(c2ccccc2)(C(C)(C)O)CC1 [Example 1, 4-Phenyl-α,α,1-trimethyl-4-piperidinemethanol] | 5.6 mg/kg | 0.78 mg/kg | – | – |
| COc1ccc(C2(C(C)(C)O)CCN(C)CC2)cc1 [Example 19, 4-(4'-Methoxyphenyl)-α,α,1-trimethyl-4-piperidinemethanol] | 1.1 mg/kg | 0.33 mg/kg | – | – |
| CN1CCC(c2ccc(-c3ccccc3)cc2)(C(C)(C)O)CC1 [Example 42, 4-(4'-Biphenylyl)-α,α,1-trimethyl-4-piperidinemethanol] | 1.5 mg/kg | 1 mg/kg | – | – |
| CCOc1cccc(C2(C(C)(C)O)CCN(C)CC2)c1 [Example 40, 4-(3'-Ethoxyphenyl)-α,α,1-trimethyl-4-piperidinemethanol] | 0.9 mg/kg | 0.9 mg/kg | – | – |
| Cc1ccccc1C1(C(C)(C)O)CCN(C)CC1 [Example 9, 4-(2'-Tolyl)-α,α,1-trimethyl-4-piperidinemethanol] | 0.48 mg/kg | 0.33 mg/kg | – | – |
| COc1cccc(C2(C3(O)CCCC3)CCN(C)CC2)c1 [Example 34, 1[1'-Methyl-4'-(3"-methoxyphenyl)-4'-piperidine]cyclopentanol] | 0.48 mg/kg | 0.45 mg/kg | – | – |
